Measurements as given in article PMC10253522 (2023).

System: aptamer beacon probe (ABP) (DNA, aptamer) ATTCTCTCACCTGGGGGAGTATTGCGGAGGAAGGTAT
Assay: FAM-Dabcyl fluorescence quenching and fluorescence melting
Conditions: 100 mM NaCl, 5 mM MgCl2, 20 mM Tris-HCl pH 7.4, 23 and 40 °C

## Nc1ccn([C@@H]2O[C@H](COP(=O)(O)OP(=O)(O)OP(=O)(O)O)[C@@H](O)[C@H]2O)c(=O)n1
625 µM CTP, no complex in melting, residual quenching
  binding: weak

## Nc1nc2c(ncn2[C@@H]2O[C@H](COP(=O)(O)OP(=O)(O)OP(=O)(O)O)[C@@H](O)[C@H]2O)c(=O)[nH]1
625 µM GTP, no complex in melting, residual quenching
  binding: weak

## Nc1ncnc2c1ncn2[C@@H]1O[C@H](COP(=O)(O)OP(=O)(O)OP(=O)(O)O)[C@@H](O)[C@H]1O
133 nM probe, up to 625 µM ATP
  binding: yes

## O=c1ccn([C@@H]2O[C@H](COP(=O)(O)OP(=O)(O)OP(=O)(O)O)[C@@H](O)[C@H]2O)c(=O)[nH]1
625 µM UTP, no complex in melting, residual quenching
  binding: weak
